By IC50 is commonly meant the point on the concentration scale where inhibition reaches its midpoint. Lower therefore signals greater potency.

Consider eleven compounds from patent US11111238B2, “Coumarin derivatives, processes for their preparation and uses thereof for the treatment of cancer” (Lead Discovery Center GmbH, priority 2017, dated 2021).

In test [1] the target is mitochondrial RNA-polymerase (POLRMT) (Mus musculus, UniProt Q8BKF1). Briefly: Homogeneous TR-FRET assay for mitochondrial transcription activity. The format is biochemical. Conditions: homogeneous TR-FRET assay according to Example 4; activity class. Put shortly:
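Mouse POLRMT, TFAM and TFB2M with linearized pUC-LSP template in 10 mM Tris-HCl pH 7.5, 10 mM MgCl2, 40 mM NaCl; compounds at 10 μM or serial dilution, 10 min RT preincubation. Started with 500 μM each […], 2 h RT; 407 bp RNA product detected by hybridized Eu-cryptate/ATTO647N probe TR-FRET (ex 340, em 665 nm).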
A general note: Time-resolved FRET reads energy transfer from a long-lived donor to a nearby acceptor.

The subject of test [2] is mitochondrial transcription (7S RNA) in HeLa cells. Briefly: Quantitative real time-PCR assay of inhibition of mitochondrial transcription (cellular qPCR assay IMT). The format is cell-based. To be noted: Homo sapiens, 4 h compound incubation, qRT-PCR according to Example 5, activity class. Put shortly:
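HeLa cells were exposed 4 h to compound dilution series or DMSO. Mitochondrial 7S RNA, with POLRMT for nuclear transcription, was measured by TaqMan qRT-PCR, normalised to TBP. Biological triplicates were analysed by ΔΔCt and expressed as Rq % (2^-ΔΔCt).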
A general note: Quantitative PCR measures a nucleic acid by following its amplification.

Sequence of mitochondrial RNA-polymerase (POLRMT) (Q8BKF1 42-1207): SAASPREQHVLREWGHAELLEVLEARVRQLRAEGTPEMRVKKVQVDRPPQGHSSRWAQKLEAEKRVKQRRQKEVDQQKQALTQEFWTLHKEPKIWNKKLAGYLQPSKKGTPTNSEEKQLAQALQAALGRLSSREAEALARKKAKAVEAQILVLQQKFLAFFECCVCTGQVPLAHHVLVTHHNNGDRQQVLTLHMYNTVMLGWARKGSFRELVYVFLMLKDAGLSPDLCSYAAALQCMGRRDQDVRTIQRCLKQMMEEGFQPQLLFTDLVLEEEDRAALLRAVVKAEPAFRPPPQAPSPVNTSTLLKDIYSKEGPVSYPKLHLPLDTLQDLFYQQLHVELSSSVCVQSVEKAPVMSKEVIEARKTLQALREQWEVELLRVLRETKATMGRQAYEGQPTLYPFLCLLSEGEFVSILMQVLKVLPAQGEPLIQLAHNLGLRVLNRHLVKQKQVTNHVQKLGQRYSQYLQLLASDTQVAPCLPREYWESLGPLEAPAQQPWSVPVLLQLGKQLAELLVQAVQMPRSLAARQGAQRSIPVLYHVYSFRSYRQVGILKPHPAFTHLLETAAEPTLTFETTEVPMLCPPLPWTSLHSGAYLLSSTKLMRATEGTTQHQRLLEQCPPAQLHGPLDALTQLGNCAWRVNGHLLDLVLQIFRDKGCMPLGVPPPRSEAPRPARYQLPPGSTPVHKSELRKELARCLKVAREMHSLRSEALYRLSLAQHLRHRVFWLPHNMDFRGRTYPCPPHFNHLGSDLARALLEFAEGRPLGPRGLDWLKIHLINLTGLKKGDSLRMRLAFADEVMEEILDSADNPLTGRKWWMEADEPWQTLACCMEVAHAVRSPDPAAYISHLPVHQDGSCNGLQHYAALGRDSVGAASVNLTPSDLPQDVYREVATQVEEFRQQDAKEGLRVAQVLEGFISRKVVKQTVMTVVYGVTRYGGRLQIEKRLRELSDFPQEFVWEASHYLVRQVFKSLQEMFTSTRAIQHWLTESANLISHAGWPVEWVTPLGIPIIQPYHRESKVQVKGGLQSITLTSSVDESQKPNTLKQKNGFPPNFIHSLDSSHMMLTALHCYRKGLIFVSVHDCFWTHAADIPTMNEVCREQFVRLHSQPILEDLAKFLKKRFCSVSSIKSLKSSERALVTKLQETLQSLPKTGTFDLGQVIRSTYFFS

For `C[C@@H](Oc1ccc2c(-c3ccc(F)cc3Cl)cc(=O)oc2c1)C(=O)Nc1ccc(C(=O)O)cn1` [Compound 155, 6-[[(2R)-2-[4-(2-chloro-4-fluoro-phenyl)-2-oxo-chromen-7-yl]oxypropanoyl]amino]pyridine-3-carboxylic acid], the figures for the half-maximal inhibitory concentration (IC50) in test [1] and in test [2] were less than 20 nM and less than 10 nM, respectively.

Consider `C[C@@H](Oc1ccc2c(-c3ccc(F)cc3Cl)cc(=O)oc2c1)C(=O)N1CC[C@H](C(=O)O)C1` [Compound 159, (3S)-1-[(2R)-2-[4-(2-chloro-4-fluoro-phenyl)-2-oxo-chromen-7-yl]oxypropanoyl]pyrrolidine-3-carboxylic acid], for which the IC50 in test [1] was 20 to 100 nM; in test [2], 500 to 5000 nM.

`C=CC(=O)N1CCN(C(=O)[C@@H](C)Oc2ccc3c(-c4ccc(F)cc4Cl)cc(=O)oc3c2)CC1` [Compound 164, 4-(2-chloro-4-fluoro-phenyl)-7-[(1R)-1-methyl-2-oxo-2-(4-prop-2-enoylpiperazin-1-yl)ethoxy]chromen-2-one]: the IC50 in test [1] was less than 20 nM; in test [2] it was less than 10 nM.

Take `C=CC(=O)N[C@H]1CCCN(C(=O)[C@@H](C)Oc2ccc3c(-c4ccc(F)cc4Cl)cc(=O)oc3c2)C1` [Compound 165, N-[(3S)-1-[(2R)-2-[4-(2-chloro-4-fluoro-phenyl)-2-oxo-chromen-7-yl]oxypropanoyl]-3-piperidyl]prop-2-enamide]: the IC50 in test [1] was less than 20 nM; in test [2], less than 10 nM.

On to `C[C@@H](Oc1ccc2c(-c3ccc(F)cc3Cl)cc(=O)oc2c1)C(=O)N1CCN(C(=O)CCl)CC1` [Compound 166, (R)-4-(2-chloro-4-fluorophenyl)-7-((1-(4-(2-chloroacetyl)piperazin-1-yl)-1-oxopropan-2-yl)oxy)-2H-chromen-2-one], for which the concentration for half-maximal inhibition (IC50) is less than 20 nM in test [1] and less than 10 nM in test [2].

Turning to `C[C@@H](Oc1ccc2c(-c3ccc(F)cc3Cl)cc(=O)oc2c1)C(=O)N1CCC[C@H](NC(=O)CCl)C1` [Compound 167, 2-chloro-N-[(3S)-1-[(2R)-2-[4-(2-chloro-4-fluoro-phenyl)-2-oxo-chromen-7-yl]oxypropanoyl]-3-piperidyl]acetamide], the IC50 was less than 20 nM in test [1] and less than 10 nM in test [2].

In the case of `CCC(=O)N1CCN(C(=O)[C@@H](C)Oc2ccc3c(-c4ccc(F)cc4Cl)cc(=O)oc3c2)CC1` [Compound 168, 4-(2-chloro-4-fluoro-phenyl)-7-[(1R)-1-methyl-2-oxo-2-(4-propanoylpiperazin-1-yl)ethoxy]chromen-2-one], the half-inhibitory concentration (IC50) is less than 20 nM in test [1] and less than 10 nM in test [2].

With `CCC(=O)N[C@H]1CCCN(C(=O)[C@@H](C)Oc2ccc3c(-c4ccc(F)cc4Cl)cc(=O)oc3c2)C1` [Compound 169, N-[(3S)-1-[(2R)-2-[4-(2-chloro-4-fluoro-phenyl)-2-oxo-chromen-7-yl]oxypropanoyl]-3-piperidyl]propanamide], the IC50 in test [1] was less than 20 nM; in test [2], less than 10 nM.

Turning to `C[C@@H](Oc1ccc2c(-c3ccccc3Cl)cc(=O)oc2n1)C(=O)N1CCC[C@H](C(=O)O)C1` [Compound 172, (3S)-1-[(2R)-2-[4-(2-chlorophenyl)-2-oxo-pyrano[2,3-b]pyridin-7-yl]oxypropanoyl]piperidine-3-carboxylic acid], the figures for the IC50 in test [1] and in test [2] were 20 to 100 nM and 50 to 500 nM, respectively.

Regarding `C[C@@H](Oc1ccc2c(-c3ccc(F)cc3Cl)cc(=O)oc2n1)C(=O)N1CCC[C@H](C(=O)O)C1` [Compound 173, (3S)-1-[(2R)-2-[4-(2-chloro-4-fluoro-phenyl)-2-oxo-pyrano[2,3-b]pyridin-7-yl]oxypropanoyl]piperidine-3-carboxylic acid], the IC50 in test [1] is 20 to 100 nM; in test [2], 50 to 500 nM.

For the compound `Cc1ccsc1-c1cc(=O)oc2cc(O[C@H](C)C(=O)N3CCC[C@H](C(=O)O)C3)ccc12` [Compound 174, (3S)-1-[(2R)-2-[4-(3-methyl-2-thienyl)-2-oxo-chromen-7-yl]oxypropanoyl]piperidine-3-carboxylic acid], the IC50 in test [1] is 20 to 100 nM; in test [2] it was less than 10 nM.
